According to ChEMBL document CHEMBL1201862, “PubChem BioAssay data set” (2004):
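How tested: cells in 96-well plates exposed to compound for 48 hours at five concentrations. GI50 is the concentration that inhibits growth by half.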 Calls of active or inactive are those of the source. Cut-off read from the data, not from the text of the source: active = GI50 up to about 1.1 µM and inactive = higher.

Tests used:
Test in all cases: NCI anticancer screen, dose series, 48 h
786-0 = test system: 786-0
A549 = test system: A549
ACHN = test system: ACHN
BT-549 = test system: BT-549
CAKI-1 = test system: CAKI-1
CCRF-CEM = test system: CCRF-CEM
COLO 205 = test system: COLO 205
DU-145 = test system: DU-145
EKVX = test system: EKVX
HCC 2998 = test system: HCC 2998
HCT-116 = test system: HCT-116
HCT-15 = test system: HCT-15
HL-60 = test system: HL-60
HOP-62 = test system: HOP-62
HOP-92 = test system: HOP-92
HT-29 = test system: HT-29
IGROV-1 = test system: IGROV-1
K562 = test system: K562
KM12 = test system: KM12
LOX IMVI = test system: LOX IMVI
M14 = test system: M14
MCF7 = test system: MCF7
MDA-MB-231 = test system: MDA-MB-231
MDA-MB-435 = test system: MDA-MB-435
MOLT-4 = test system: MOLT-4
Malme-3M = test system: Malme-3M
NCI-H226 = test system: NCI-H226
NCI-H23 = test system: NCI-H23
NCI-H460 = test system: NCI-H460
NCI-H522 = test system: NCI-H522
NCI/ADR-RES = test system: NCI/ADR-RES
OVCAR-4 = test system: OVCAR-4
OVCAR-5 = test system: OVCAR-5
OVCAR-8 = test system: OVCAR-8
PC-3 = test system: PC-3
RPMI-8226 = test system: RPMI-8226
SF-295 = test system: SF-295
SF-539 = test system: SF-539
SK-MEL-28 = test system: SK-MEL-28
SK-MEL-2 = test system: SK-MEL-2
SK-MEL-5 = test system: SK-MEL-5
SN12C = test system: SN12C
SNB-19 = test system: SNB-19
SNB-75 = test system: SNB-75
SR = test system: SR
SW-620 = test system: SW-620
TK-10 = test system: TK-10
U-251 = test system: U-251
UACC-257 = test system: UACC-257
A498 = test system: A498
Hs-578T = test system: Hs-578T
SF-268 = test system: SF-268
SK-OV-3 = test system: SK-OV-3
T47D = test system: T47D
UACC-62 = test system: UACC-62
UO-31 = test system: UO-31

Measured: GI50

Nc1cc(N2CCCC2)nc(=O)n1-c1ccccc1
> 100 µM: HCT-15
inactive: 786-0 > 100 µM | A549 > 100 µM | ACHN > 100 µM | BT-549 > 100 µM | CAKI-1 > 100 µM | CCRF-CEM > 100 µM | COLO 205 > 100 µM | DU-145 > 100 µM | EKVX > 100 µM | HCC 2998 20.7 µM | HCT-116 > 100 µM | HL-60 > 100 µM | HOP-62 > 100 µM | HOP-92 > 100 µM | HT-29 > 100 µM | IGROV-1 > 100 µM | K562 > 100 µM | KM12 > 100 µM | LOX IMVI > 100 µM | M14 > 100 µM | MCF7 > 100 µM | MDA-MB-231 > 100 µM | MDA-MB-435 > 100 µM | MOLT-4 > 100 µM | Malme-3M > 100 µM | NCI-H226 54.2 µM | NCI-H23 > 100 µM | NCI-H460 > 100 µM | NCI-H522 > 100 µM | NCI/ADR-RES > 100 µM | OVCAR-4 > 100 µM | OVCAR-5 > 100 µM | OVCAR-8 > 100 µM | PC-3 > 100 µM | RPMI-8226 > 100 µM | SF-295 > 100 µM | SF-539 > 100 µM | SK-MEL-28 > 100 µM | SK-MEL-2 > 100 µM | SK-MEL-5 > 100 µM | SN12C > 100 µM | SNB-19 > 100 µM | SNB-75 > 100 µM | SR > 100 µM | SW-620 > 100 µM | TK-10 > 100 µM | U-251 > 100 µM | UACC-257 > 100 µM

Cc1cc(C)c2c(O)cc(-c3ccc(F)cc3)nc2n1
47.1 µM: HCT-15
inactive: A498 27.4 µM | A549 44.6 µM | ACHN 39.7 µM | BT-549 65.8 µM | CAKI-1 33.6 µM | CCRF-CEM 26.7 µM | COLO 205 32.1 µM | DU-145 66.1 µM | EKVX 48.5 µM | HCC 2998 31.3 µM | HOP-62 > 100 µM | HOP-92 29.9 µM | HT-29 39.2 µM | Hs-578T 69 µM | IGROV-1 32.4 µM | K562 32.1 µM | KM12 20.7 µM | LOX IMVI 45.6 µM | M14 45.7 µM | MCF7 30.7 µM | MDA-MB-231 63 µM | MOLT-4 29.9 µM | Malme-3M 42.9 µM | NCI-H226 35.6 µM | NCI-H23 38.6 µM | NCI-H522 30.3 µM | NCI/ADR-RES 47.6 µM | OVCAR-4 17.6 µM | OVCAR-5 80.5 µM | OVCAR-8 76.7 µM | RPMI-8226 24.8 µM | SF-268 42.1 µM | SF-539 > 100 µM | SK-MEL-28 37.3 µM | SK-MEL-2 38.7 µM | SK-OV-3 87.9 µM | SN12C 50.7 µM | SNB-19 > 100 µM | SNB-75 27.2 µM | SR 23.3 µM | SW-620 34.4 µM | T47D 37.8 µM | TK-10 95.1 µM | UACC-257 33.1 µM | UACC-62 33.7 µM | UO-31 23.9 µM
